Results: article PMC10535842, “Novel Thiazole-Based SIRT2 Inhibitors Discovered via Molecular Modelling Studies and Enzymatic Assays” (Pharmaceuticals, 2023)
Where “and” joins values, the source holds several entries; their conditions need not be identical. Equal values may be shown once. Read-outs that look alike come from different tables or passages of the source.

Columns and labels:
[1] = system: SIRT2; settings: substrate ZMAL; read-out: SIRT2 IC50 (series A, compounds 1-26); cited from earlier work
[2] = biological target: T1, recombinant SIRT2 (Homo sapiens, UniProt Q8IXJ6); assay: SIRT2 deacetylase activity, recombinant SIRT2 incubated with acetylated peptide H3K9Ac and NAD+; format: biochemical; settings: 150 μM; recombinant protein
T1 sequence (Q8IXJ6 1-389): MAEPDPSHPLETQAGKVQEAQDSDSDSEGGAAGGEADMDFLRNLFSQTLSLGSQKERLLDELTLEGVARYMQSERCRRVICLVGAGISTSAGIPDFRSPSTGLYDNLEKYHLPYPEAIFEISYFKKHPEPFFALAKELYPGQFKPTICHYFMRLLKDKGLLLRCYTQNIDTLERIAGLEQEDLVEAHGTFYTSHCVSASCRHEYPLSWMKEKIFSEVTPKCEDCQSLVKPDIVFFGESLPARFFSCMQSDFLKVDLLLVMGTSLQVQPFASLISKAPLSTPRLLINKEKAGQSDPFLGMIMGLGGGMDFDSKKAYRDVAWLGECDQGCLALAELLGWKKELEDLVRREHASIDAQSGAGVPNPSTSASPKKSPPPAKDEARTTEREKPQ
Protocol: The effect of the in silico screened compounds on the SIRT2 deacetylase activity was evaluated thanks to the incubation of recombinant SIRT2 with an acetylated peptide (H3K9Ac, a peptide acetylated on Lys 9) and NAD^+.

[3] = system: SIRT2; settings: substrate RHKK(Ac)-AMC; read-out: SIRT2 IC50 (series B, compounds 27-111); cited from earlier work

Row | Structure (SMILES) | IC50 [1] | also measured
1 | O=C(CSc1cccc(O)c1)Nc1ncc(Cc2cccc3ccccc23)s1 [Compound 7] | 143 µM | –
2 | Cc1cc(C)nc(SCC(=O)Nc2ncc(Cc3c(C)ccc4ccccc34)s2)n1 [Compound 14] | 0.31 µM | –
3 | Cc1cc(C)nc(SCC(=O)Nc2ncc(Cc3cccc4ccccc34)s2)n1 [Compound 10, SirReal2] | – | inhibition at 150 µM [2]: 100 ± 5%
4 | O=C(CSc1ncccn1)Nc1ncc(Cc2cccc3ccccc23)s1 [Compound 17] | 2.34 µM and 2.34 to 16.8 µM | –
5 | Cc1cc(C)nc(SCC(=O)Nc2nnc(Cc3ccc(Br)cc3)s2)n1 [Compound 24] | 168 µM | –
6 | CCOc1cccc(Cc2cnc(NC(=O)CSc3nc(C)cc(C)n3)s2)c1 [Compound 5] | 1.33 µM | –
7 | Cc1cc(C)nc(SCC(=O)Nc2ncc(Cc3cccc4cc(Cl)ccc34)s2)n1 [Compound 16] | 0.48 µM | –
8 | Cc1cc(C)nc(SC(C)C(=O)Nc2ncc(Cc3cccc4ccccc34)s2)n1 (centres unmarked) [Compound 12] | 9.77 µM | –
9 | Cc1cc(C)nc(SCC(=O)Nc2ncc(C(=O)Nc3cccc4ccccc34)s2)n1 [Compound 9] | 33 µM | –
10 | Cc1cc(C)nc(SCC(=O)Nc2ncc(Cc3cccc4ccc(Br)cc34)s2)n1 [Compound 15] | 0.21 µM | –
11 | Cc1nc(SCC(=O)Nc2ncc(Cc3cccc4ccccc34)s2)nc(C)c1C [Compound 19] | 15 µM | –
12 | Cc1cc(C)cc(SCC(=O)Nc2ncc(Cc3cccc4ccccc34)s2)c1 [Compound 8] | 207 µM and > 167 µM | –
13 | Cc1cc(C)nc(SCC(=O)Nc2nnc(Cc3cccc4ccccc34)s2)n1 [Compound 25] | 1.89 µM | –
14 | Cc1cccc(Cc2cnc(NC(=O)CSc3nc(C)cc(C)n3)s2)c1 [Compound 3] | 1.64 µM | –
15 | Cc1cc(C)nc(SCC(=O)Nc2ncc(Cc3ccc(Cl)cc3)s2)n1 [Compound 4] | 3.4 µM | –
16 | Cc1cc(C)nc(SCC(=O)Nc2ncc(Cc3ccc(-c4ccccc4)cc3)s2)n1 [Compound 6] | 164 µM and > 167 µM | –
17 | CCOc1ccc2nc(NC(=O)CSc3nc(C)cc(C)n3)sc2c1 [Compound 26] | 207 µM and > 167 µM | –
18 | CCCc1cc(O)nc(SCC(=O)Nc2ncc(Cc3cccc4ccccc34)s2)n1 [Compound 21] | 127 µM | –
19 | CCc1cc(CC)nc(SCC(=O)Nc2ncc(Cc3cccc4ccccc34)s2)n1 [Compound 18] | 45.6 µM | –
20 | Cc1cc(C)nc(SCC(=O)Nc2nnc(Cc3ccc(Cl)cc3)s2)n1 [Compound 23] | 30.9 µM | –
21 | Cc1cc(C)nc(SC(C)C(=O)Nc2ncc(Cc3cccc4ccccc34)s2)n1 (centres unmarked) [Compound 13] | 0.26 µM | –
22 | O=c1c2c3c(sc2ncn1Cc1cccc2cccnc12)CC(NCc1ccccc1)CC3 (centres unmarked) [Compound 42] | – | IC50 [3]: 2.5 µM
23 | O=c1c2c3c(sc2ncn1Cc1cccc2cccnc12)CC(NCc1ccco1)CC3 (centres unmarked) [Compound 30] | – | IC50 [3]: 4.16 µM
